Measured values: US20100168033A1, “UNACYLATED GHRELIN AS THERAPEUTIC AGENT IN THE TREATMENT OF METABOLIC DISORDERS” (ALIZE PHARMA SAS, priority 2007, published 2010)
“Also recorded” adds a separate entry of the source. Read-outs that look alike come from different tables or passages of the source. No end group written: not given here.

Tests used:
INS-1E β-cells = test: MTT cell survival assay in INS-1E β-cells; type: cell-based, rat; settings: peptides 0.1 nM to 100 nM
Experimental: The peptides were tested at increasing concentrations, ranging from 0.1 nM to 100 nM.
(§1) Cell culture—Hamster HIT-T15 insulin-secreting β-cells were obtained and cultured as described (Refs. 14, 4). INS-1E rat β-cells were kindly provided by Prof. Claes B. Wollheim (University Medical Center, Geneva, Switzerland) and cultured as described (Refs. 14, 4). Cell culture reagents were from Invitrogen (Milano, Italy). Cytokines were from Biosource (Invitrogen, Italy).
(§2) Cell survival assay—Cell survival was assessed by 3-[4,5-dimethylthiazol-2-yl]-2,5 diphenyltetrazolium bromide (MTT) as described previously (Ref. 4). Cells were seeded on 96-well plates at a density of 5×10^3 cells/well. After treatments, cells were incubated with 1 mg/ml MTT for ≈1 h. The medium was aspirated, and the formazan product solubilized with 100 μl DMSO. Viability was assessed by spectrophotometry at 570 nm absorbance using a 96-well plate reader.

HIT-T15 β-cells [1] = type: cell-based
Experimental: MTT experiments were also performed in hamster HIT-T15 β-cells, to test the survival effect of UAG (1-28) or its fragments UAG (1-14), UAG (1-18), UAG (1-5) and UAG (17-28) in serum deprived medium, either alone or with IFN-γ/TNF-α/IL-1β. As for the experiments performed on INS-1E β-cells, the peptides were tested at increasing concentrations, ranging from 0.1 nM to 100 nM.
The survival effect of UAG (6-13), UAG (8-13), UAG (8-12), UAG (8-11), UAG (9-12) and UAG (9-11) was assessed in cytokine-treated HIT-T15 β-cells.
The protective effects of peptides UAG (8-13) and UAG (8-12) were found similar to those of UAG (1-14) and UAG (1-18) A peptide made of the inverse sequence of UAG (1-14) and named UAG (14-1), was used as negative control for these experiments (FIG. 5A). […] These effects were however lower than those of UAG (6-13) (FIG. 5B).
UAG fragments with alanine (Ala) substitutions at different amino acid positions (6 to 13) were tested with regards to their survival effects in HIT-T15 hamster β-cells. The cells were cultured in serum deprived medium, either alone or with IFN-γ/TNF-α/IL-1β. The peptides were tested at the concentrations of 1 nM to 100 nM. […] Under treatment with cytokines, where cell survival was reduced by ≈18% with respect to serum starved conditions, all Ala substitutions, except those at positions 10 and 11, completely reversed cell death and brought the survival rate to levels that were even higher than those under serum-free conditions, at both 1 nM and 100 nM concentrations. These effects, were similar to those elicited by the original peptide UAG (6-13) (FIG. 11B).
Particularly, the best effect was exerted by Gly 6-UAG (6-13), whereas the lowest was seen using AcSer 6-UAG (6-13), AcSer 6-(D)Pro 7-UAG (6-13) (FIG. 12B).
as §1, §2

human pancreatic islets [2] = test: MTT cell survival assay in human pancreatic islets; type: cell-based; settings: 1 nM to 100 nM
Experimental: The survival effect of UAG (1-14), UAG (1-18), UAG (1-5) and UAG (17-28), with respect to that of full length UAG (1-28), was assessed in human pancreatic islets by MTT. The peptides were tested in islet cells cultured in serum deprived medium, either alone or with IFN-γ/TNF-α/IL-1β (5 ng/ml each).
Human islet isolation—Human islets were obtained from pancreases of multiorgan donors as described (Ref. 4). Islet preparations with purity >70%, not suitable for transplantation, were provided by European Consortium for Islet Transplantation (ECIT) “Islets for Research Distribution Program,” Transplant Unit, Scientific Institute San Raffaele, Vita-Salute University, Milan. Islets (10,000) were cultured in CMRL (Invitrogen) with 10% FBS.
as §2

human pancreatic islets [3] = test: Insulin secretion in human pancreatic islets; type: cell-based; settings: peptide 100 nM; glucose absent or 2 to 25 mM
Experimental: The effects of UAG (1-14) and UAG (1-18), both used at 100 nM, were investigated on insulin secretion in human islets. […] UAG (1-28) and Exendin-4 were used as positive controls (FIGS. 8C and 8D).

HIT-T15 β-cells [4] = test: Insulin secretion in HIT-T15 β-cells; type: cell-based, hamster; settings: data not shown
Experimental: Insulin secretion—HIT-T15 cells were plated at density of 5×10^5 cells into 100-mm dishes and serum starved for 24 h before incubation for 1 h at 37° C. in HEPES-buffered Krebs-Ringer bicarbonate buffer (KRBH), containing 0.5% BSA with 1.25 mM glucose. The medium was changed and the cells were incubated again for 1 h in KRBH/0.5% BSA containing 1.25, 7.5 or 15 mM glucose. Following acid ethanol extraction of the hormone, secreted insulin was quantitated by a radioimmunoassay kit (Linco Research, Labodia, Yens, Switzerland) which recognizes human insulin and cross reacts with rat insulin.

[5] = tested on: UAG receptor on HIT-T15 pancreatic β-cells; test: [125I-Tyr4]-UAG competition binding, HIT-T15 membranes; set-up: species or system hamster; settings: HIT-T15 cells
Experimental: (§3) The ability of the fragment UAG (6-13) to compete in a concentration-dependent manner with [^125I-Tyr^4]-UAG for HIT-T15 (FIG. 10A) and INS-1E (FIG. 10B) binding sites was assayed. As shown in FIGS. 10A and 10B, unlabelled UAG (1-28) and UAG (6-13) competed with a similar efficacy and in a concentration-dependent fashion with [^125I-Tyr^4]-UAG for such binding sites in both cell lines.
(§4) Binding assay—Membranes from hamster HIT-T15 and rat INS-1E to pancreatic β-cells were prepared and assayed for the presence of [^125I-Tyr^4]-UAG binding. The ability of UAG fragments to compete with the radioligand for such binding sites has been evaluated as previously described (Ref. 4). Data are presented as mean±S.E.M. of three independent experiments.

[6] = tested on: UAG receptor on INS-1E pancreatic β-cells; test: [125I-Tyr4]-UAG competition binding, INS-1E membranes; set-up: species or system rat; settings: INS-1E cells
Experimental: as §3, §4

[7] = serum deprived medium with IFN-γ/TNF-α/IL-1β

| Substance | cell survival (MTT) (INS-1E β-cells; [7]) | cell survival (MTT) (INS-1E β-cells; serum-free medium) | cell survival (MTT) (HIT-T15 β-cells [1]; serum deprived medium alone) | cell survival (MTT) (HIT-T15 β-cells [1]; [7]) | cell survival (MTT) (human pancreatic islets [2]; serum deprived medium alone) | cell survival (MTT) (human pancreatic islets [2]; serum deprived medium with IFN-γ/TNF-α/IL-1β (5 ng/ml each)) | insulin secretion (human pancreatic islets [3]) | glucose-induced insulin secretion (HIT-T15 β-cells [4]) | binding to the UAG receptor [5] | binding to the UAG receptor [6] |
| --- | --- | --- | --- | --- | --- | --- | --- | --- | --- | --- |
| GSSFLSPEHQRVQQ [UAG (1-14)] | more potent than full length UAG (1-28); also recorded: even stronger than native UAG | significant survival effect, comparable to that of UAG (1-28) | significantly increased cell viability | significantly increased cell viability | significantly increased cell survival in serum deprived medium at 10 nM and 100 nM | prevented cell death at 100 nM | significantly increased insulin secretion both in the absence and presence of glucose | significantly increased glucose-induced insulin secretion | recognized and bound to the UAG receptor | recognized and bound to the UAG receptor |
| exendin-4: positive control for insulin secretion, from Phoenix Pharmaceuticals [reference compound] |  |  |  |  |  |  | significantly increased insulin secretion both in the absence and presence of glucose | significantly increased glucose-induced insulin secretion |  |  |
